Data: ChEMBL document CHEMBL3046512, “Flubendiamide, a Novel Insecticide Highly Active against Lepidopterous Insect Pests” (J Pestic Sci, 2005)
Calls of active or inactive are those of the source. The rule behind the calls is not given here.

Assays:
Spodoptera litura [1] = experiment: Insecticidal activity against fifth-instar larvae of Spodoptera litura in cabbage leaf disk after 4 to 7 days by leaf dipping method; type: functional, organism-based
Plutella xylostella [2] = experiment: Insecticidal activity against third-instar larvae of Plutella xylostella (diamondback moth) in cabbage leaf disk after 4 to 7 days by leaf dipping method; type: functional, organism-based
Spodoptera litura [3] = experiment: Insecticidal activity against sixth-instar larvae of Spodoptera litura assessed as sustained body contraction at 2.4 ug/larvae after 24 hr; type: functional, organism-based
Plutella xylostella [4] = experiment: Insecticidal activity against third-instar larvae of synthetic pyrethroid-resistant Plutella xylostella (diamondback moth) in cabbage leaf disk after 4 to 7 days by leaf dipping method; type: functional, organism-based
Neoseiulus cucumeris = experiment: Toxicity in adlult of Neoseiulus cucumeris after 2 days by spraying on food and insect method; type: organism-based; conditions: in vivo, 48 h
Harmonia axyridis = experiment: Toxicity in adult of Harmonia axyridis after 4 days by insect dipping method; type: organism-based; conditions: in vivo, 96 h
Pieris rapae crucivora = experiment: Insecticidal activity against second to third-instar larvae of Pieris rapae crucivora; type: functional, organism-based
Misumenops = experiment: Toxicity in adult of Misumenops tricuspidatus after 4 days by insect dipping method; type: organism-based; conditions: in vivo, 96 h
Aphidoletes aphidimyza = experiment: Toxicity in larvae of Aphidoletes aphidimyza after 2 days by spraying on food and insect method; type: organism-based; conditions: in vivo, 48 h
Agrotis segetum = experiment: Insecticidal activity against two to third-instar larvae of Agrotis segetum in cabbage leaf; type: functional, organism-based
Chilo suppressalis = experiment: Insecticidal activity against third-instar larvae of Chilo suppressalis (rice stem borer) […]; type: functional, organism-based
Autographa nigrisigna = experiment: Insecticidal activity against third-instar larvae of Autographa nigrisigna in cabbage leaf; type: functional, organism-based
Adoxophyes honmai = experiment: Insecticidal activity against fourth-instar larvae of Adoxophyes honmai in tea leaf; type: functional, organism-based
Hellula undalis = experiment: Insecticidal activity against third-instar larvae of Hellula undalis in cabbage leaf; type: functional, organism-based
Chrysoperla carnea = experiment: Toxicity in larvae of Chrysoperla carnea after 2 days by spraying on food and insect method; type: organism-based; conditions: in vivo, other, 48 h
Homona magnanima = experiment: Insecticidal activity against fourth-instar larvae of Homona magnanima in tea leaf; type: functional, organism-based
Pardosa pseudoannulata = experiment: Toxicity in adult of Pardosa pseudoannulata after 4 days by insect dipping method; type: organism-based; conditions: in vivo, 96 h
Aphidius colemani = experiment: Toxicity in adlult of Aphidius colemani after 2 days by dry film method; type: organism-based; conditions: in vivo, 48 h
Helicoverpa armigera = experiment: Insecticidal activity against Helicoverpa armigera; type: functional, organism-based
[5] = system: Coccinella septempunctata brucki; experiment: Toxicity in adult of Coccinella septempunctata brucki after 4 days by insect dipping method; type: organism-based; conditions: in vivo, 96 h
Spodoptera litura [6] = experiment: Insecticidal activity against sixth-instar larvae of Spodoptera litura assessed as sustained body contraction at 0.24 ug/larvae after 24 hr; type: functional, organism-based
Encarsia formosa = experiment: Toxicity in adult Encarsia formosa after 2 days by dry film method; type: organism-based; conditions: in vivo, 48 h
Plutella xylostella [7] = experiment: Insecticidal activity against third-instar larvae of insecticide-resistant Plutella xylostella (diamondback moth) in cabbage leaf disk after 4 to 7 days by leaf dipping method; type: functional, organism-based
Spodoptera litura [8] = experiment: Insecticidal activity against fifth-instar larvae of Spodoptera litura assessed as gradual contraction of insect body at 100 mg/l after 24 hr; type: functional, organism-based
Orius strigicollis = experiment: Toxicity in adult of Orius strigicollis after 2 days by spraying on food and insect method; type: organism-based; conditions: in vivo, 48 h
Phytoseiulus persimilis = experiment: Toxicity in adult of Phytoseiulus persimilis after 2 days by spraying on food and insect method; type: organism-based; conditions: in vivo, 48 h
Cotesia glomerata = experiment: Toxicity in adult Cotesia glomerata after 2 days by dry film method; type: organism-based; conditions: in vivo, 48 h
Spodoptera litura [9] = experiment: Insecticidal activity against fifth-instar larvae of Spodoptera litura assessed as thickening and shortening without convulsion at 100 mg/l after 24 hr; type: functional, organism-based
Plutella xylostella [10] = experiment: Insecticidal activity against third-instar larvae of benzoylphenylurea-resistant Plutella xylostella (diamondback moth) in cabbage leaf disk after 4 to 7 days by leaf dipping method; type: functional, organism-based
Plutella xylostella [11] = experiment: Insecticidal activity against third-instar larvae of carbamate-resistant Plutella xylostella (diamondback moth) in cabbage leaf disk after 4 to 7 days by leaf dipping method; type: functional, organism-based
Plutella xylostella [12] = experiment: Insecticidal activity against third-instar larvae of organophosphate-resistant Plutella xylostella (diamondback moth) in cabbage leaf disk after 4 to 7 days by leaf dipping method; type: functional, organism-based

Cc1cc(C(F)(C(F)(F)F)C(F)(F)F)ccc1NC(=O)c1cccc(I)c1C(=O)NC(C)C
EC50 (Spodoptera litura [1]): 0.3 mgAi/L
EC50 (Plutella xylostella [2]): 0.1 mgAi/L

Cc1cc(OC(F)(F)F)ccc1NC(=O)c1cccc(I)c1C(=O)NC(C)C
EC50 (Spodoptera litura [1]): 1 mgAi/L
EC50 (Plutella xylostella [2]): 0.3 mgAi/L

Cc1cc(Cl)ccc1NC(=O)c1cccc(Br)c1C(=O)NC(C)C
EC50 (Spodoptera litura [1]): 10 mgAi/L
EC50 (Plutella xylostella [2]): 1 mgAi/L

Cc1cc(Cl)ccc1NC(=O)c1ccccc1C(=O)NC(C)C
EC50 (Spodoptera litura [1]): 10 mgAi/L
EC50 (Plutella xylostella [2]): 3 mgAi/L

Cc1cc(Cl)ccc1NC(=O)c1cccc([N+](=O)[O-])c1C(=O)NC(C)C
EC50 (Spodoptera litura [1]): 10 mgAi/L
EC50 (Plutella xylostella [2]): 10 mgAi/L

Cc1cc(Cl)ccc1NC(=O)c1cccc(Cl)c1C(=O)NC(C)C
EC50 (Spodoptera litura [1]): 10 mgAi/L
EC50 (Plutella xylostella [2]): 1 mgAi/L

Cc1cc(Cl)ccc1NC(=O)c1ccc(Cl)cc1C(=O)NC(C)C
EC50 (Spodoptera litura [1]): > 500 mgAi/L
EC50 (Plutella xylostella [2]): 5 mgAi/L

Cc1cc(Cl)ccc1NC(=O)c1cc(Cl)ccc1C(=O)NC(C)C
EC50 (Spodoptera litura [1]): > 500 mgAi/L
EC50 (Plutella xylostella [2]): 50 mgAi/L

Cc1cc(Cl)ccc1NC(=O)c1c(Cl)cccc1C(=O)NC(C)C
EC50 (Spodoptera litura [1]): > 500 mgAi/L
EC50 (Plutella xylostella [2]): 10 mgAi/L

Cc1cc(Cl)ccc1NC(=O)c1cccc(F)c1C(=O)NC(C)C
EC50 (Spodoptera litura [1]): > 500 mgAi/L
EC50 (Plutella xylostella [2]): 1 mgAi/L

Cc1cc(Cl)ccc1NC(=O)c1cccc(I)c1C(=O)NC(C)C
EC50 (Spodoptera litura [1]): 3 mgAi/L
EC50 (Plutella xylostella [2]): 0.3 mgAi/L

Cc1c(Cl)cccc1NC(=O)c1cccc(I)c1C(=O)NC(C)C
EC50 (Spodoptera litura [1]): 10 mgAi/L
EC50 (Plutella xylostella [2]): 3 mgAi/L

Cc1ccc(Cl)cc1NC(=O)c1cccc(I)c1C(=O)NC(C)C
EC50 (Spodoptera litura [1]): 10 mgAi/L
EC50 (Plutella xylostella [2]): 3 mgAi/L

COc1ccc(NC(=O)c2cccc(I)c2C(=O)NC(C)C)c(C)c1
EC50 (Spodoptera litura [1]): 30 mgAi/L
EC50 (Plutella xylostella [2]): 10 mgAi/L

Cc1cc(C(F)(C(F)(F)F)C(F)(F)F)ccc1NC(=O)c1cccc(I)c1C(=O)NC(C)(C)C
EC50 (Spodoptera litura [1]): 0.3 mgAi/L
EC50 (Plutella xylostella [2]): 0.3 mgAi/L

CC(=O)NCC(C)(C)NC(=O)c1c(I)cccc1C(=O)Nc1ccc(C(F)(C(F)(F)F)C(F)(F)F)cc1C
EC50 (Spodoptera litura [1]): 0.1 mgAi/L

CC(C)[C@@]1(O)[C@@H](OC(=O)c2cc[nH]c2)[C@@]2(O)[C@]3(C)C[C@@]4(O)O[C@@]5([C@H](O)[C@@H](C)CC[C@]35O)[C@@]2(O)[C@@]41C
Activity (Spodoptera litura [3]): Active

CC1(C)C(/C=C(\Cl)C(F)(F)F)C1C(=O)OC(C#N)c1cccc(Oc2ccccc2)c1 (stereo unspecified) [CYHALOTHRIN]
EC50 (Plutella xylostella [4]): 869 mgAi/L
EC50 (Plutella xylostella [2]): 0.24 mgAi/L

Cc1cc(C(F)(C(F)(F)F)C(F)(F)F)ccc1NC(=O)c1cccc(I)c1C(=O)NC(C)(C)CS(C)(=O)=O [FLUBENDIAMIDE]
EC30 (Neoseiulus cucumeris): > 200 mgAi/L
EC30 (Harmonia axyridis): > 200 mgAi/L
EC50 (Pieris rapae crucivora): 0.03 mgAi/L
EC30 (Misumenops): > 200 mgAi/L
EC30 (Aphidoletes aphidimyza): > 100 mgAi/L
EC50 (Agrotis segetum): 0.18 mgAi/L
EC50 (Chilo suppressalis): < 0.01 mgAi/L
EC50 (Autographa nigrisigna): 0.02 mgAi/L
EC50 (Adoxophyes honmai): 0.38 mgAi/L
EC50 (Hellula undalis): 0.01 mgAi/L
EC30 (Chrysoperla carnea): > 100 mgAi/L
EC50 (Homona magnanima): 0.58 mgAi/L
EC30 (Pardosa pseudoannulata): > 100 mgAi/L
EC30 (Aphidius colemani): > 400 mgAi/L
Activity (Helicoverpa armigera): Active
EC50 (Spodoptera litura [1]): 0.03 mgAi/L
EC30 [5]: > 200 mgAi/L
Activity (Spodoptera litura [6]): Active
EC30 (Encarsia formosa): > 400 mgAi/L
EC50 (Plutella xylostella [7]): 0.002 mgAi/L
Activity (Spodoptera litura [8]): Active
EC30 (Orius strigicollis): > 100 mgAi/L
EC30 (Phytoseiulus persimilis): > 200 mgAi/L
EC30 (Cotesia glomerata): > 100 mgAi/L
EC50 (Plutella xylostella [2]): 0.001 mgAi/L
Activity (Spodoptera litura [9]): Active

O=C(NC(=O)c1c(F)cccc1F)Nc1ccc(Oc2ccc(C(F)(F)F)cc2Cl)cc1F [FLUFENOXURON]
EC50 (Plutella xylostella [10]): 233 mgAi/L
EC50 (Plutella xylostella [2]): 0.05 mgAi/L

CNC(=O)ON=C(C)SC [METHOMYL]
EC50 (Plutella xylostella [11]): 287 mgAi/L
EC50 (Plutella xylostella [2]): 14.5 mgAi/L

CCCSP(=S)(OCC)Oc1ccc(Cl)cc1Cl (stereo unspecified) [PROTHIOFOS]
EC50 (Plutella xylostella [12]): 24.2 mgAi/L
EC50 (Plutella xylostella [2]): 3.78 mgAi/L
